Experimental data from US20040171073A1, “Compounds for modulation of cholesterol transport” (Massachusetts Institute of Technology, priority 2002, published 2004).

Target: T1, murine SR-BI (Mus musculus, UniProt Q61009)
T1 construct: expressed in transfected cells; host or cells: ldlA-7 (LDL receptor deficient Chinese hamster ovary cells)
T1 sequence (Q61009 1-509): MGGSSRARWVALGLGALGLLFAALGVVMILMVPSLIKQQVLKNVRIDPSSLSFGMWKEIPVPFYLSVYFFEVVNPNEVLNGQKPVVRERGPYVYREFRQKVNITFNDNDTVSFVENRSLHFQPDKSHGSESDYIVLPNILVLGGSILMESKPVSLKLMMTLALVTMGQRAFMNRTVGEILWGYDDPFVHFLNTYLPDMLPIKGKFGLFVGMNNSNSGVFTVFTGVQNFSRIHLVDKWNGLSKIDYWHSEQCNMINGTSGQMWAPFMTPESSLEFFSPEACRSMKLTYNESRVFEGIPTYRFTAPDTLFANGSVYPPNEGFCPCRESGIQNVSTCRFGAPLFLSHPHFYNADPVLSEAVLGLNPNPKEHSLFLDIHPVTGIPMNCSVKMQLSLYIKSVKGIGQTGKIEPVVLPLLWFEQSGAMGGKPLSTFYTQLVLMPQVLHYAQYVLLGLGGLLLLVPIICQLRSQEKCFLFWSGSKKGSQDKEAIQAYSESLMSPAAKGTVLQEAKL
Test: Uptake of DiI from DiI-HDL by ldlA[mSR-BI] cells (high throughput screen and concentration dependence)
Format: cell-based
Conditions: not given

| Compound | ENDOHDL Test 1 | ENDOHDL Test 2 |
| --- | --- | --- |
| O=C(Nc1cc(Cl)ccc1Cl)c1cc(Br)ccc1NS(=O)(=O)c1ccc(Cl)c([N+](=O)[O-])c1 [MIT 9952-132] | 0.65 | 0.46 |

Same assay, conditions: Test 1

| Compound | ENDOHDL Test 1 |
| --- | --- |
| O=C(NC(NC(=S)Nc1cccc2ccccc12)C(Cl)(Cl)Cl)c1cccc([N+](=O)[O-])c1 (centres unmarked) [MIT 9952-102] | 0.56 |
| Cc1nn(-c2ccc([N+](=O)[O-])cc2)c(Cl)c1[N+](=O)[O-] [MIT 9952-103] | 0.56 |
| O=C(NC(NC(=S)Nc1ccc(Cl)cc1Cl)C(Cl)(Cl)Cl)c1ccco1 (centres unmarked) [MIT 9952-106] | 0.6 |
| CC1CC2(C)CC(C(=O)O2)C1C(=O)OCCOc1ccccc1 (centres unmarked) [MIT 9952-109] | 1.19 |
| O=C(Cl)c1ccccc1NS(=O)(=O)/C=C/c1ccccc1 [MIT 9952-110] | 1.17 |
| CC(C)C(=O)NC(NC(=S)Nc1cccc(C(=O)Cl)c1)C(Cl)(Cl)Cl (centres unmarked) [MIT 9952-117] | 1.26 |
| COc1cccc(NC(=O)c2sc(-c3ccccc3)nc2-c2ccc([N+](=O)[O-])cc2)c1 [MIT 9952-118] | 0.51 |
| CC(=O)c1c(C)n(-c2ccccc2)c2ccc(O)cc12 [MIT 9952-119] | 0.62 |
| CCOC(=O)c1c(NC(=O)c2ccc(N)c([N+](=O)[O-])c2)sc2c1CCCC2 [MIT 9952-121] | 0.54 |
| NC(/N=N/c1ccccc1)=N\Nc1ccccc1 [MIT 9952-122] | 0.55 |
| O=C(Cc1ccccc1)N/N=C/c1cccn1-c1ccc([N+](=O)[O-])cc1 [MIT 9952-123] | 0.59 |
| O=C(COc1ccc(Cl)cc1)N/N=C/c1ccc(Cl)cc1 [MIT 9952-124] | 1.33 |
| COc1ccc([N+](=O)[O-])cc1NC(=S)NC(NC(=O)c1ccccc1Br)C(Cl)(Cl)Cl (centres unmarked) [MIT 9952-125] | 0.63 |
| NC(=O)N/N=C/c1ccc(-c2ccc([N+](=O)[O-])cc2)o1 [MIT 9952-126] | 0.55 |
| O=C(COc1ccc(Cl)cc1Cl)Nc1cccc(C(=O)O)c1 [MIT 9952-127] | 0.62 |
| CCOC(C(=O)OC(C)CN(C)C)(c1ccccc1)c1ccccc1.Cl (centres unmarked) [MIT 9952-128] | 1.23 |
| CC1(C)C(C(=O)OCC(=O)c2ccc([N+](=O)[O-])cc2)CCC1C(=O)OCC(=O)c1ccc([N+](=O)[O-])cc1 (centres unmarked) [MIT 9952-129] | 0.57 |
| Cc1ccc2c(c1Br)/C(=N/NC(=O)Nc1ccccc1)C(=O)N2 [MIT 9952-130] | 0.62 |
| COc1ccc(C(=O)NC(Nc2cccc3ccccc23)C(Cl)(Cl)Cl)cc1 (centres unmarked) [MIT 9952-131] | 0.56 |
| COc1ccccc1C(=O)NC(Nc1cccc2ccccc12)C(Cl)(Cl)Cl (centres unmarked) [MIT 9952-134] | 0.58 |

| Compound | ENDOHDL Test 1 |
| --- | --- |
| CN(C)c1ccc(C(Cl)(c2ccc(N(C)C)cc2)C2CN3CCC2CC3)cc1.Cl (centres unmarked) [MIT 9952-137] | 1.32 |
| Cc1nn(-c2ccccc2)c(Cl)c1/N=N/c1ccccc1 [MIT 9952-138] | 0.54 |
| O=[N+]([O-])c1ccc(Cl)c(/C=N/c2ccc(S(=O)(=O)c3ccc(/N=C/c4cc([N+](=O)[O-])ccc4Cl)cc3)cc2)c1 [MIT 9952-139] | 1.22 |
| COc1ccc([N+](=O)[O-])cc1NC(=S)NC(NC(=O)C(c1ccccc1)c1ccccc1)C(Cl)(Cl)Cl (centres unmarked) [MIT 9952-140] | 0.52 |
| CCN(CC)C(=O)N1CCN(c2ccc(Nc3ccnc4cc5ccccc5cc34)cc2)CC1 [MIT 9952-141] | 0.63 |
| CCCCN1CCC(O)(c2ccccc2)C(C(=O)c2ccccc2)C1 (centres unmarked) [MIT 9952-142] | 1.28 |
| CCn1c(COC)c(-c2ccccc2)c2cc([N+](=O)[O-])ccc21 [MIT 9952-143] | 0.66 |
| Nc1ccc(C(=O)Nc2ccc(C3Nc4ccc(SC(=O)c5ccc(N)cc5)c(Cl)c4S3)cc2)cc1 (centres unmarked) [MIT 9952-144] | 0.56 |
| O=C(Oc1ccc2c(=O)c(Oc3ccccc3)coc2c1)C1CCCN1C(=O)OCc1ccccc1 (centres unmarked) [MIT 9952-145] | 1.28 |
| Br.CCOC(=O)c1c(CSC(=N)N)n(C)c2cc(Br)c(OC(C)=O)cc12 [MIT 9952-146] | 0.62 |
| FC(F)(F)c1cccc(N2N=C(/C=C/c3ccccc3)CC2c2ccccc2)c1 (centres unmarked) [MIT 9952-147] | 0.63 |
| CN(C)/C=N/C(=O)CN1CCCC1=O [MIT 9952-148] | 1.44 |
| COc1ccccc1NC(=O)Nc1ccc2ccccc2c1 [MIT 9952-149] | 0.62 |
| Cc1cc(C(=O)N/N=C\c2c(O)ccc3ccccc23)[nH]n1 [MIT 9952-150] | 0.34 |
| COC(=O)/C=C1/Nc2ccccc2OC1=O [MIT 9952-151] | 1.22 |
| CN(C)CC(=O)Nc1ccc2c(c1)Nc1ccccc1CC2.Cl [MIT 9952-152] | 0.51 |
| Cc1ccc(C(C)C)c(OCC(=O)Nc2cc([N+](=O)[O-])ccc2C)c1 [MIT 9952-153] | 0.6 |
| Cc1ccc(C(C)C)cc1OCC(=O)N/N=C\c1cc([N+](=O)[O-])ccc1O [MIT 9952-154] | 0.47 |
| COc1c(Cl)cc(Cl)cc1C(=O)Nc1ccc(Br)cc1 [MIT 9952-155] | 0.69 |

Same assay, conditions: Test 2

| Compound | ENDOHDL Test 2 |
| --- | --- |
| O=C(NC(NC(=S)Nc1cccc2ccccc12)C(Cl)(Cl)Cl)c1cccc([N+](=O)[O-])c1 (centres unmarked) [MIT 9952-102] | 0.49 |
| Cc1nn(-c2ccc([N+](=O)[O-])cc2)c(Cl)c1[N+](=O)[O-] [MIT 9952-103] | 0.61 |
| O=C(NC(NC(=S)Nc1ccc(Cl)cc1Cl)C(Cl)(Cl)Cl)c1ccco1 (centres unmarked) [MIT 9952-106] | 0.53 |
| CC1CC2(C)CC(C(=O)O2)C1C(=O)OCCOc1ccccc1 (centres unmarked) [MIT 9952-109] | 1.75 |
| O=C(Cl)c1ccccc1NS(=O)(=O)/C=C/c1ccccc1 [MIT 9952-110] | 1.33 |
| CC(C)C(=O)NC(NC(=S)Nc1cccc(C(=O)Cl)c1)C(Cl)(Cl)Cl (centres unmarked) [MIT 9952-117] | 1.58 |
| COc1cccc(NC(=O)c2sc(-c3ccccc3)nc2-c2ccc([N+](=O)[O-])cc2)c1 [MIT 9952-118] | 0.63 |
| CC(=O)c1c(C)n(-c2ccccc2)c2ccc(O)cc12 [MIT 9952-119] | 0.64 |
| CCOC(=O)c1c(NC(=O)c2ccc(N)c([N+](=O)[O-])c2)sc2c1CCCC2 [MIT 9952-121] | 0.57 |
| NC(/N=N/c1ccccc1)=N\Nc1ccccc1 [MIT 9952-122] | 0.82 |
| O=C(Cc1ccccc1)N/N=C/c1cccn1-c1ccc([N+](=O)[O-])cc1 [MIT 9952-123] | 0.64 |
| O=C(COc1ccc(Cl)cc1)N/N=C/c1ccc(Cl)cc1 [MIT 9952-124] | 1.17 |
| COc1ccc([N+](=O)[O-])cc1NC(=S)NC(NC(=O)c1ccccc1Br)C(Cl)(Cl)Cl (centres unmarked) [MIT 9952-125] | 0.66 |
| NC(=O)N/N=C/c1ccc(-c2ccc([N+](=O)[O-])cc2)o1 [MIT 9952-126] | 0.53 |
| O=C(COc1ccc(Cl)cc1Cl)Nc1cccc(C(=O)O)c1 [MIT 9952-127] | 0.6 |
| CCOC(C(=O)OC(C)CN(C)C)(c1ccccc1)c1ccccc1.Cl (centres unmarked) [MIT 9952-128] | 1.36 |
| CC1(C)C(C(=O)OCC(=O)c2ccc([N+](=O)[O-])cc2)CCC1C(=O)OCC(=O)c1ccc([N+](=O)[O-])cc1 (centres unmarked) [MIT 9952-129] | 0.54 |
| Cc1ccc2c(c1Br)/C(=N/NC(=O)Nc1ccccc1)C(=O)N2 [MIT 9952-130] | 0.65 |
| COc1ccc(C(=O)NC(Nc2cccc3ccccc23)C(Cl)(Cl)Cl)cc1 (centres unmarked) [MIT 9952-131] | 0.52 |
| COc1ccccc1C(=O)NC(Nc1cccc2ccccc12)C(Cl)(Cl)Cl (centres unmarked) [MIT 9952-134] | 0.59 |

| Compound | ENDOHDL Test 2 |
| --- | --- |
| CN(C)c1ccc(C(Cl)(c2ccc(N(C)C)cc2)C2CN3CCC2CC3)cc1.Cl (centres unmarked) [MIT 9952-137] | 1.25 |
| Cc1nn(-c2ccccc2)c(Cl)c1/N=N/c1ccccc1 [MIT 9952-138] | 0.63 |
| O=[N+]([O-])c1ccc(Cl)c(/C=N/c2ccc(S(=O)(=O)c3ccc(/N=C/c4cc([N+](=O)[O-])ccc4Cl)cc3)cc2)c1 [MIT 9952-139] | 1.39 |
| COc1ccc([N+](=O)[O-])cc1NC(=S)NC(NC(=O)C(c1ccccc1)c1ccccc1)C(Cl)(Cl)Cl (centres unmarked) [MIT 9952-140] | 0.58 |
| CCN(CC)C(=O)N1CCN(c2ccc(Nc3ccnc4cc5ccccc5cc34)cc2)CC1 [MIT 9952-141] | 0.77 |
| CCCCN1CCC(O)(c2ccccc2)C(C(=O)c2ccccc2)C1 (centres unmarked) [MIT 9952-142] | 1.32 |
| CCn1c(COC)c(-c2ccccc2)c2cc([N+](=O)[O-])ccc21 [MIT 9952-143] | 0.65 |
| Nc1ccc(C(=O)Nc2ccc(C3Nc4ccc(SC(=O)c5ccc(N)cc5)c(Cl)c4S3)cc2)cc1 (centres unmarked) [MIT 9952-144] | 0.56 |
| O=C(Oc1ccc2c(=O)c(Oc3ccccc3)coc2c1)C1CCCN1C(=O)OCc1ccccc1 (centres unmarked) [MIT 9952-145] | 1.34 |
| Br.CCOC(=O)c1c(CSC(=N)N)n(C)c2cc(Br)c(OC(C)=O)cc12 [MIT 9952-146] | 0.71 |
| FC(F)(F)c1cccc(N2N=C(/C=C/c3ccccc3)CC2c2ccccc2)c1 (centres unmarked) [MIT 9952-147] | 0.53 |
| CN(C)/C=N/C(=O)CN1CCCC1=O [MIT 9952-148] | 1.32 |
| COc1ccccc1NC(=O)Nc1ccc2ccccc2c1 [MIT 9952-149] | 0.6 |
| Cc1cc(C(=O)N/N=C\c2c(O)ccc3ccccc23)[nH]n1 [MIT 9952-150] | 0.52 |
| COC(=O)/C=C1/Nc2ccccc2OC1=O [MIT 9952-151] | 1.36 |
| CN(C)CC(=O)Nc1ccc2c(c1)Nc1ccccc1CC2.Cl [MIT 9952-152] | 0.43 |
| Cc1ccc(C(C)C)c(OCC(=O)Nc2cc([N+](=O)[O-])ccc2C)c1 [MIT 9952-153] | 0.57 |
| Cc1ccc(C(C)C)cc1OCC(=O)N/N=C\c1cc([N+](=O)[O-])ccc1O [MIT 9952-154] | 0.45 |
| COc1c(Cl)cc(Cl)cc1C(=O)Nc1ccc(Br)cc1 [MIT 9952-155] | 0.47 |
